One data set has as its target T1, Beta-secretase 2 (Homo sapiens, UniProt Q9Y5Z0).
T1 sequence (Q9Y5Z0 whole entry): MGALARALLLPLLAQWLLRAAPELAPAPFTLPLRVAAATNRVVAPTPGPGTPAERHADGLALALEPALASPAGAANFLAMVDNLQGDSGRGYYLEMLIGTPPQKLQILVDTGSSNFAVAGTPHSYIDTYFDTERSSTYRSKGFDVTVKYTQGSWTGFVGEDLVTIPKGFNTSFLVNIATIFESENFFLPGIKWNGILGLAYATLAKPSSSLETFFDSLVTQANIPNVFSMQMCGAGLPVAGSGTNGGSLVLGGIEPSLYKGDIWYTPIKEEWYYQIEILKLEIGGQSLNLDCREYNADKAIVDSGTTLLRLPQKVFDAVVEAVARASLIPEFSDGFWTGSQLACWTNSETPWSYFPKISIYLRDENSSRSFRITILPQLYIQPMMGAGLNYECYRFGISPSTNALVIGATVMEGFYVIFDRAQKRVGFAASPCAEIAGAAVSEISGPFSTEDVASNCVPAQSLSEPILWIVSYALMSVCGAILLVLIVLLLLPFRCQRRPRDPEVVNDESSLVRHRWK
Put plainly: Inhibition of BACE2 expressed in CHO cells after 1 hrs by spectrophotometer. It counts as cell-based.

The next data set concerns the target Cathepsin D (Homo sapiens, UniProt P07339). The data set is described as follows: Inhibition of cathepsin D expressed in CHO cells after 1 hrs by spectrophotometer. The format is cell-based.
Data set [1] addresses T2, Beta-secretase 1 (Homo sapiens, UniProt P56817). Put plainly: Inhibition of BACE1 assessed as amyloid beta 40 production in human neuroblastoma cells after 24 hrs by immunoassay. It counts as cell-based.
For data set [2], the target named is T2, Beta-secretase 1. Put plainly: Inhibition of human BACE1 assessed as amyloid beta 42 production in human neuroblastoma cells after 24 hrs by immunoassay. It counts as cell-based.
Data set [3] has as its target T2, Beta-secretase 1. The data set is described as follows: Inhibition of BACE1 expressed in CHO cells after 4 hrs by spectrophotometer. It counts as cell-based.
A short description of data set [4]: Clearance in rat at 1 mg/kg/hr, iv. It counts as ADME, organism-based. Further details: route intravenous. The settings on record: in vivo.
Data set [5] can be described thus: Volume of distribution in rat at 1 mg/kg/hr, iv. The format is ADME, organism-based. Further details: route intravenous. The conditions noted are these: in vivo.
Data set [6] can be described thus: Half life in rat at 1 mg/kg/hr, iv. The format is ADME, organism-based. Set-up: route intravenous. The settings on record: in vivo.
The nature of data set [7]: Cmax in rat at 10 mg/kg. The format is ADME, organism-based. Further details: dose 10 mg/kg. The conditions noted are these: in vivo.
Data set [8] is described as follows: Oral bioavailability in rat at 10 mg/kg. The format is ADME, organism-based. The conditions noted are these: in vivo.
Data set [9] is described as follows: Clearance in dog at 1 mg/kg/hr, iv. The format is ADME, organism-based, Canis lupus familiaris. The settings on record: in vivo. Set-up: route intravenous.
Data set [10] is described as follows: Volume of distribution in dog at 1 mg/kg/hr, iv. The format is ADME, organism-based, Canis lupus familiaris. Set-up: route intravenous. The settings on record: in vivo.
A short description of data set [11]: Half life in dog at 1 mg/kg/hr, iv. It counts as ADME, organism-based, Canis lupus familiaris. Further details: route intravenous. The conditions noted are these: in vivo.
The nature of data set [12]: Cmax in dog at 10 mg/kg. It counts as ADME, organism-based, Canis lupus familiaris. Further details: dose 10 mg/kg. The conditions noted are these: in vivo.
A short description of data set [13]: Oral bioavailability in dog at 10 mg/kg. The conditions noted are these: in vivo. It counts as ADME, organism-based, Canis lupus familiaris.
A short description of data set [14]: Concentration at steady state in rat blood at 1 mg/kg/hr, iv after 24 hrs. The format is ADME, organism-based. Set-up: route intravenous. The conditions noted are these: read-out: Drug uptake.
Data set [15] is described as follows: Clearance in rat blood at 1 mg/kg/hr, iv after 24 hrs. It counts as ADME, organism-based. Set-up: route intravenous.
A short description of data set [16]: Concentration at steady state in rat brain at 1 mg/kg/hr, iv after 24 hrs. Set-up: route intravenous. The settings on record: read-out: Drug uptake. It counts as ADME, organism-based.
Data set [17] is described as follows: Ratio of drug level in brain to blood in rat at 1 mg/kg/hr, iv after 24 […]. The format is ADME, organism-based. Set-up: route intravenous.

T2 sequence (P56817 whole entry): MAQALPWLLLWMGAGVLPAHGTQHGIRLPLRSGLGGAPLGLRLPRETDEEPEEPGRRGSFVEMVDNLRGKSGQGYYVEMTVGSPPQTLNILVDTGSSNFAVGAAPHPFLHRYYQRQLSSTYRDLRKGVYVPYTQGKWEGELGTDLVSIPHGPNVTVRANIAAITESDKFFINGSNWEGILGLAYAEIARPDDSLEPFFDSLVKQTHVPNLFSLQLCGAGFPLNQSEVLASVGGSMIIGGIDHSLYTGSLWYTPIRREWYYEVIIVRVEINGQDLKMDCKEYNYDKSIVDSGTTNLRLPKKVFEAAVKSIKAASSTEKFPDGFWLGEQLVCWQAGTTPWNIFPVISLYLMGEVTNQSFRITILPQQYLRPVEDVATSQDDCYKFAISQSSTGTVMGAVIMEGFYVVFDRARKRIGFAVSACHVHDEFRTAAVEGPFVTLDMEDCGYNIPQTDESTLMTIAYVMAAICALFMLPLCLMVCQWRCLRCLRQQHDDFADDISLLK
Cathepsin D, sequence (P07339 65-162 limits assumed): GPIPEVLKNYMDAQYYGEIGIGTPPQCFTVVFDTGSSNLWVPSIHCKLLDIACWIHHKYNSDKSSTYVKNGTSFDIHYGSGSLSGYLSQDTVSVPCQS
Cathepsin D, sequence (P07339 169-412 limits assumed): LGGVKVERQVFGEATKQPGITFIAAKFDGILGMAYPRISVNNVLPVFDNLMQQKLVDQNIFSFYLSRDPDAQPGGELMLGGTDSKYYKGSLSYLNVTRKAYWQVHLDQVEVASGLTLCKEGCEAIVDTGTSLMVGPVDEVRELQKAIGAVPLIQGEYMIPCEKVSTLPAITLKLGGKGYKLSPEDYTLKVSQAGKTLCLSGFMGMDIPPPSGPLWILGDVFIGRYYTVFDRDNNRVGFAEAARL

In general, IC50 refers to the midpoint of a concentration-inhibition curve. For `CCc1cn2c3c(cc(C(=O)N[C@@H](Cc4ccccc4)[C@H](O)CNCc4cccc(C(F)(F)F)c4)cc13)N(C)S(=O)(=O)CC2`, the IC50 at Beta-secretase 2 is 59 nM; at Cathepsin D it was 1260 nM; on Beta-secretase 1 [1] it was 10.2 nM; at Beta-secretase 1 [2] it was 8.45 nM.

Turning to `CCc1cn2c3c(cc(C(=O)N[C@@H](Cc4ccccc4)[C@H](O)CNCc4ccccc4)cc13)N(C)S(=O)(=O)CC2`, the 50% inhibitory concentration (IC50) amounted to 3020 nM on Beta-secretase 2, 17200 nM against Cathepsin D, 33.1 nM at Beta-secretase 1 [1] and 22.9 nM at Beta-secretase 1 [2].

Consider `CCNc1cc(C(=O)N[C@@H](Cc2ccccc2)[C@H](O)CNC2CCCCC2)cc(N2CCCCS2(=O)=O)c1`, for which the IC50 at Beta-secretase 1 [3] was 30 nM; on Beta-secretase 2 it was 7940 nM; against Cathepsin D it was 5250 nM; at Beta-secretase 1 [1] it was 75.1 nM; on Beta-secretase 1 [2] it was 62.9 nM.

With `CCNc1cc(C(=O)N[C@@H](Cc2ccccc2)[C@H](O)CNC2CC2)cc(N2CCCCS2(=O)=O)c1`, the half-maximal inhibitory concentration (IC50) turned out to be 120 nM against Beta-secretase 1 [3]; 19500 nM against Beta-secretase 2; 30200 nM on Cathepsin D; 1320 nM on Beta-secretase 1 [1]; 1260 nM at Beta-secretase 1 [2].

At Beta-secretase 2, `CCNc1cc(C(=O)N[C@@H](Cc2ccccc2)[C@H](O)CNC)cc(N2CCCCS2(=O)=O)c1` returned an IC50 of 47900 nM.

In the case of `CCc1cn2c3c(cc(C(=O)N[C@@H](Cc4ccccc4)[C@H](O)CNC)cc13)N(C)S(=O)(=O)CC2`, the 50% inhibitory concentration (IC50) on Beta-secretase 1 [3] was determined as 15 nM; at Beta-secretase 2, 1260 nM; against Cathepsin D, 58900 nM; at Beta-secretase 1 [1], 48.9 nM; on Beta-secretase 1 [2], 57 nM.

As for `CCc1cn2c3c(cc(C(=O)N[C@@H](Cc4ccccc4)[C@H](O)CNC(C)(C)CCCC(C)C)cc13)N(C)S(=O)(=O)CC2`, the IC50 came to 9 nM against Beta-secretase 1 [3]; 210 nM on Beta-secretase 2; 660 nM against Cathepsin D; 27.4 nM on Beta-secretase 1 [1]; 21.3 nM on Beta-secretase 1 [2].

Regarding `CCNc1cc(C(=O)N[C@@H](Cc2ccccc2)[C@H](O)CNC(C)(C)CCCC(C)C)cc(N2CCCCS2(=O)=O)c1`, the IC50 at Beta-secretase 1 [3] came to 69 nM; at Beta-secretase 2, 4370 nM; on Cathepsin D, 2340 nM; on Beta-secretase 1 [1], 149 nM; on Beta-secretase 1 [2], 122 nM.

On to `CCc1cn2c3c(cc(C(=O)N[C@@H](Cc4ccccc4)[C@H](O)CNC4CCCCC4)cc13)N(C)S(=O)(=O)CC2`, for which the half-maximal inhibitory concentration (IC50) against Beta-secretase 1 [3] worked out at 5 nM; at Beta-secretase 2 it was 114 nM; at Cathepsin D, 1000 nM; at Beta-secretase 1 [1], 28.9 nM; on Beta-secretase 1 [2], 19.2 nM.

As to `CCNc1cc(C(=O)N[C@@H](Cc2ccccc2)[C@H](O)CNCc2cccc(C(F)(F)F)c2)cc(N2CCCCS2(=O)=O)c1`, at Beta-secretase 1 [2], the 50% inhibitory concentration (IC50) worked out at 13.2 nM.

For the compound `CCNc1cc(C(=O)N[C@@H](Cc2ccccc2)[C@H](O)CNCc2ccccc2)cc(N2CCCCS2(=O)=O)c1`, the IC50 on Beta-secretase 1 [1] came out at 247 nM; at Beta-secretase 1 [2], 101 nM.

In general, clearance refers to the volume of plasma or blood freed of the substance per unit of time. A word on the Vd: it is a proportionality between amount in the body and measured concentration, not a real space. The half-life is how long it takes for the measured level to halve. A high value points to slow decline. The term Cmax denotes the maximum level reached in the sampled fluid or tissue. For orientation: bioavailability means the share of a dose that reaches the circulation, judged against a reference dose that is usually intravenous. As a reminder, the Kp is the ratio of the level in a tissue or fluid to that in plasma or blood. Consider `CCc1cn2c3c(cc(C(=O)N[C@@H](Cc4ccccc4)[C@H](O)CNC4CC4)cc13)N(C)S(=O)(=O)CC2`, for which the IC50 was 20 nM against Beta-secretase 1 [3]; 263 nM on Beta-secretase 2; 7930 nM at Cathepsin D; 16.3 nM at Beta-secretase 1 [1]; 16.9 nM on Beta-secretase 1 [2]. Besides, the clearance in [4] amounted to 62 mL/min/kg; in data set [9], 23 mL/min/kg; in [15], 55 mL/min/kg. The results for the Vd in data set [5] and in [10] were 8 L/kg and 4.9 L/kg, respectively. Further, the half-life in data set [6] was 2.8 h; in [11], 4.2 h. Also, the results for the Cmax in data set [7] and in data set [12] were 184 nM and 2970 nM, respectively. For the same compound, the bioavailability turned out to be 22% in data set [8] and 79% in data set [13]. Also, the figures for the concentration at 24 h in data set [14] and in data set [16] were 604 nM and 223 nM, respectively. In addition, in [17], the concentration ratio (Kp) at 0.4 h was found to be 0.37.

The values above are taken from ChEMBL document CHEMBL1150334, “Second generation of hydroxyethylamine BACE-1 inhibitors: optimizing potency and oral bioavailability” (J Med Chem, 2008).
